6 molecules from paper PMC8230370, “Antiproliferative Illudalane Sesquiterpenes from the Marine Sediment Ascomycete Aspergillus oryzae” (Marine Drugs, 2021) can be followed below.

Each structure is given as a SMILES string. “Also recorded” adds a separate entry of the source. Read-outs that look alike come from different tables or passages of the source.

The subject of data set [1] is MCF-7 (breast) cancer cells. The experiment in a line: MTT antiproliferative assay, MCF-7 breast carcinoma. Type of data set: cell-based, human. The settings on record: 48 h incubation, MCF-7 cells, read-out: IC50 for the Different Carcinoma Cell Lines, MCF-7 (Breast). The method, then:
(§1) The antiproliferative activity of compounds was measured using MTT (3-(4, 5-dimethylthiazol-2-yl)-2,5-diphenyltetrazolium bromide) assay. A549 (lung), HepG2 (liver), and MCF-7 (breast) cancer cells were purchased from the American Type Cell Collection (ATCC, Manassas, VA, USA). The cells were seeded at 5 × 10^4 cells/well (in 100 μL of DMEM) in 96-well microplates. After 24 h incubation at 37 °C, serial dilution (15–250 µM) of each compound was added and incubated for 48 h. Thereafter, 10 μL of the MTT solution (5 mg/mL) was added to each well. After 4 h incubation with the MTT solution, a volume of 100 μL of acidified isopropanol was added to solubilize the formazan product and incubated on a shaker for a further 10 min. Reduced MTT was assayed at 570 nm using a microplate reader (BioTek, Winoosky, VT, USA). Control groups received the same amount of DMSO (0.1%), untreated cells were used as a negative control, whereas cells treated with doxorubicin were used as a positive control. The IC50 (concentration that caused more than 50% inhibition of proliferation) was calculated from a dose-dependent curve. The cell viability percent was calculated = mean absorbance of treated sample/mean absorbance of control ×100.
On the technique in general: Tetrazolium assays rely on reduction of a dye to a coloured formazan, in cell work by metabolically active cells.

The test system of data set [2] is zebrafish embryos. The experiment in a line: Zebrafish embryo toxicity screening. In kind it is in vivo. The note with it: for observable toxicity / development of treated zebrafish embryos: up to 3 days post treatment. An excerpt:
Wild-type zebrafish strain AB/Tuebingen TAB-14(AB/TuebingenTAB-14) (Catalog ID: ZL1438) were obtained from zebrafish international resource center and grown in an animal facility at the Department of Zoology, King Saud University, Riyadh, Kingdom of Saudi Arabia. The fish were maintained and bred following guidelines of the Institutional Animal Care and Use Committee (ICUAC) and zebrafish book. The fertilized embryos were obtained by natural pairwise breeding of adult fish. The fertilized embryos were sorted, dead embryos were removed, and synchronous stage embryos were used for screening.
A stock solution of 25 mM was made by dissolving the compounds in molecular biology grade DMSO (Sigma Aldrich, St. Louis, MI, USA). Zebrafish embryos were exposed to serial dilution (1, 5, 15, 45, 150, and 300 µM) of each compound. The embryos were remained exposed to the compounds for 3 days, and the embryos medium containing the compounds were changed every day. The response of the embryos toward mortality, and embryonic toxicity (teratogenicity) was monitored once after 12 h and then after every 24 h until the end of the experiment. The experiment was repeated at least three times (triplicate biological repeats) by using a new batch of embryos every time. LC50 for zebrafish embryonic toxicity was calculated by using an updated Probit analysis by Finney method.

Data set [3] has as its system HepG2 (liver) cancer cells. Description: MTT antiproliferative assay, HepG2 liver carcinoma. Type of data set: cell-based, human. The note with it: 48 h incubation, read-out: IC50 for the Different Carcinoma Cell Lines, HepG2 (Liver). Here is the method:
as §1

Data set [4] deals with A549 (lung) cancer cells. The experiment in a line: MTT antiproliferative assay, A549 lung carcinoma. Type of data set: cell-based, human. The settings on record: 48 h incubation, read-out: IC50 for the Different Carcinoma Cell Lines, A549 (Lung). The method, then:
as §1

As for `Cc1c2c(cc3c1[C@@H](O)COC3=O)CC(C)(C)C2` [Compound 1, asperorlactone], the IC50 (as a rule, the concentration needed to halve the response being measured) in data set [1] was 106 ± 4.2 µM; in data set [1] (Homo sapiens, MCF7, 48 h), less than 100 µM; in data set [3], 86.6 ± 3.2 µM; in data set [3] (Homo sapiens, HepG2, 48 h), less than 100 µM; in data set [4] it was 72.7 ± 1.1 µM; in data set [4] (Homo sapiens, A549, 48 h), less than 100 µM. In data set [2] (more than 200 µM compound, after 2 days post treatment), the “toxicity in zebrafish embryos” value is “cardiac toxicity (cardiac edema and cardiac hypertrophy”.
For the molecule `Cc1c2c(cc3c1CCOC3=O)C[C@](C)(CO)C2` [Compound 2, echinolactone D], the IC50 worked out at 128 ± 2.8 µM in data set [1] (Homo sapiens, MCF7, 48 h); 148 ± 5.6 µM in data set [3] (Homo sapiens, HepG2, 48 h); 55.7 ± 2.5 µM in data set [4] (Homo sapiens, A549, 48 h). The “observable toxicity / development of treated zebrafish embryos” value (“observable toxicity / development” for short) in data set [2] was “did not exhibit any observable toxicity; also recorded: developed normally”.
For `O=c1cc(CO)c(O)co1` [Compound 3, 4-(hydroxymethyl)-5-hydroxy-2H-pyran-2-one] the same measures were 225 ± 5.1 µM, 220 ± 3.6 µM, 208 ± 6.8 µM and “did not exhibit any observable toxicity; also recorded: developed normally”.
Regarding `CC(=O)OCc1cc(=O)occ1O` [Compound 4, (5-hydroxy-2-oxo-2H-pyran-4-yl)methyl acetate], the IC50 came to 171 ± 4.5 µM in data set [1] (Homo sapiens, MCF7, 48 h); 127 ± 6.4 µM in data set [3] (Homo sapiens, HepG2, 48 h); 89.4 ± 2.3 µM in data set [4] (Homo sapiens, A549, 48 h). Further, the “death of treated embryos” value in data set [2] (after 24 h post treatment, initial development normal) was 100%. In addition, the “observable toxicity / development” value in data set [2] is recorded as “found dead on day 2”.
Take `O=Cc1ccc(O)cc1` [Compound 5, 4-hydroxybenzaldehyde]: the IC50 was determined as 158 ± 5.5 µM in data set [1] (Homo sapiens, MCF7, 48 h); 243 ± 6.4 µM in data set [3] (Homo sapiens, HepG2, 48 h); 97.5 ± 2.6 µM in data set [4] (Homo sapiens, A549, 48 h). The “observable toxicity / development” value in data set [2] is listed as “did not exhibit any observable toxicity; also recorded: developed normally”.
Consider `COc1cccc2c1C(=O)c1c(O)c3c(c(O)c1C2=O)C[C@@](O)(C(=O)CO)C[C@@H]3O[C@H]1C[C@H](N)[C@H](O)[C@H](C)O1` [Doxorubicin, doxorubicin, reference compound], for which the IC50 turned out to be 1.9 ± 0.05 µM in data set [1] (Homo sapiens, MCF7, 48 h); 2.2 ± 0.15 µM in data set [3] (Homo sapiens, HepG2, 48 h); 2.1 ± 0.08 µM in data set [4] (Homo sapiens, A549, 48 h).
